ChEMBL document CHEMBL3046832, “Synthesis of some sulfonamides, disubstituted sulfonylureas or thioureas and some structurally related variants. A class of promising antitumor agents” (2007)

Legend:
Type in all cases: functional
MDA-MB-435 = assay: Cytotoxicity against Homo sapiens (human) MDA-MB-435 cells after 48 hr by SRB assay; details: MDA-MB-435, 48 h
M14 = assay: Cytotoxicity against Homo sapiens (human) M14 cells after 48 hr by SRB assay; details: M14, 48 h
LOX IMVI = assay: Cytotoxicity against Homo sapiens (human) LOXIMVI cells after 48 hr by SRB assay
MCF7 [1] = assay: Cytotoxicity against Homo sapiens (human) MCF7 cells after 48 hr by SRB assay; details: MCF7, 48 h
MDA-MB-231 = assay: Cytotoxicity against Homo sapiens (human) MDA-MB-231 cells after 48 hr by SRB assay; details: MDA-MB-231, 48 h
UO-31 = assay: Cytotoxicity against Homo sapiens (human) UO31 cells after 48 hr by SRB assay; details: UO-31, 48 h
PC-3 = assay: Cytotoxicity against Homo sapiens (human) PC3 cells after 48 hr by SRB assay; details: PC-3, 48 h
RXF 393 = assay: Cytotoxicity against Homo sapiens (human) RXF393 cells after 48 hr by SRB assay; details: RXF 393, 48 h
786-0 = assay: Cytotoxicity against Homo sapiens (human) 786-0 cells after 48 hr by SRB assay; details: 786-0, 48 h
SK-OV-3 = assay: Cytotoxicity against Homo sapiens (human) SKOV3 cells after 48 hr by SRB assay; details: SK-OV-3, 48 h
OVCAR-5 = assay: Cytotoxicity against Homo sapiens (human) OVCAR5 cells after 48 hr by SRB assay; details: OVCAR-5, 48 h
IGROV-1 = assay: Cytotoxicity against Homo sapiens (human) IGROV1 cells after 48 hr by SRB assay; details: IGROV-1, 48 h
OVCAR-3 = assay: Cytotoxicity against Homo sapiens (human) OVCAR3 cells after 48 hr by SRB assay; details: OVCAR-3, 48 h
UACC-62 = assay: Cytotoxicity against Homo sapiens (human) UACC62 cells after 48 hr by SRB assay; details: UACC-62, 48 h
UACC-257 = assay: Cytotoxicity against Homo sapiens (human) UACC257 cells after 48 hr by SRB assay; details: UACC-257, 48 h
SK-MEL-5 = assay: Cytotoxicity against Homo sapiens (human) SK-MEL-5 cells after 48 hr by SRB assay; details: SK-MEL-5, 48 h
SK-MEL-2 = assay: Cytotoxicity against Homo sapiens (human) SK-MEL-2 cells after 48 hr by SRB assay; details: SK-MEL-2, 48 h
SK-MEL-28 = assay: Cytotoxicity against Homo sapiens (human) SK-MEL-28 cells after 48 hr by SRB assay; details: SK-MEL-28, 48 h
[2] = Cytotoxicity against Homo sapiens (human) breast cancer cells after 48 hr by SRB assay; details: Cancer cell lines
[3] = Cytotoxicity against Homo sapiens (human) ovarian cancer cells after 48 hr by SRB assay; details: Cancer cell lines
[4] = Cytotoxicity against Homo sapiens (human) melanoma cells after 48 hr by SRB assay; details: Melanoma cell
[5] = Cytotoxicity against Homo sapiens (human) CNS cancer cells after 48 hr by SRB assay; details: Cancer cell lines
[6] = Cytotoxicity against Homo sapiens (human) colon cancer cells after 48 hr by SRB assay; details: Cancer cell lines
[7] = Cytotoxicity against Homo sapiens (human) non-small cell lung cancer cells after 48 hr by SRB assay; details: Cancer cell lines
[8] = Cytotoxicity against Homo sapiens (human) leukemia cells after 48 hr by SRB assay; details: Leukemia cell
SF-268 [9] = assay: Cytotoxicity against Homo sapiens (human) SF268 cells assessed as cellular growth after 48 hr by Alamar blue assay; design: concentration or dose not given beside the values
BT-549 = assay: Cytotoxicity against Homo sapiens (human) BT549 cells after 48 hr by SRB assay; details: BT-549, 48 h
SNB-19 = assay: Cytotoxicity against Homo sapiens (human) SNB19 cells after 48 hr by SRB assay; details: SNB-19, 48 h
SF-539 = assay: Cytotoxicity against Homo sapiens (human) SF539 cells after 48 hr by SRB assay; details: SF-539, 48 h
SF-295 = assay: Cytotoxicity against Homo sapiens (human) SF295 cells after 48 hr by SRB assay; details: SF-295, 48 h
SW-620 = assay: Cytotoxicity against Homo sapiens (human) SW620 cells after 48 hr by SRB assay; details: SW-620, 48 h
SF-268 [10] = assay: Cytotoxicity against Homo sapiens (human) SF268 cells after 48 hr by SRB assay; details: SF-268, 48 h
KM12 = assay: Cytotoxicity against Homo sapiens (human) KM12 cells after 48 hr by SRB assay; details: KM12, 48 h
HCT-15 = assay: Cytotoxicity against Homo sapiens (human) HCT15 cells after 48 hr by SRB assay; details: HCT-15, 48 h
HCC 2998 = assay: Cytotoxicity against Homo sapiens (human) HCC2998 cells after 48 hr by SRB assay; details: HCC 2998, 48 h
NCI-H522 = assay: Cytotoxicity against Homo sapiens (human) NCI-H522 cells after 48 hr by SRB assay; details: NCI-H522, 48 h
COLO 205 = assay: Cytotoxicity against Homo sapiens (human) COLO205 cells after 48 hr by SRB assay; details: COLO 205, 48 h
[11] = Cytotoxicity against Homo sapiens (human) NCI-H322 cells after 48 hr by SRB assay; details: NCI-H322, 48 h
NCI-H460 = assay: Cytotoxicity against Homo sapiens (human) NCI-H460 cells after 48 hr by SRB assay; details: NCI-H460, 48 h
HOP-92 = assay: Cytotoxicity against Homo sapiens (human) HOP92 cells after 48 hr by SRB assay; details: HOP-92, 48 h
EKVX = assay: Cytotoxicity against Homo sapiens (human) EKVX cells after 48 hr by SRB assay
HOP-62 = assay: Cytotoxicity against Homo sapiens (human) HOP62 cells after 48 hr by SRB assay; details: HOP-62, 48 h
CCRF-CEM = assay: Cytotoxicity against Homo sapiens (human) CCRF-CEM cells after 48 hr by SRB assay
MCF7 [12] = assay: Cytotoxicity against Homo sapiens (human) MCF7 cells assessed as cellular growth after 48 hr by Alamar blue assay; design: concentration or dose not given beside the values

## O=C1CCS/C(=N\S(=O)(=O)c2ccc(N3N=C4c5ccccc5CC4C3c3cccs3)cc2)N1c1ccccc1 (stereo unspecified)
MDA-MB-435
  GI50: 38.7 µM
M14
  GI50: 15.3 µM
LOX IMVI
  GI50: 13.6 µM
MCF7 [1]
  GI50: 29.1 µM
MDA-MB-231
  GI50: 52.1 µM
UO-31
  GI50: > 100 µM
PC-3
  GI50: 75 µM
RXF 393
  GI50: 98.2 µM
786-0
  GI50: 64.2 µM
SK-OV-3
  GI50: 32.9 µM
OVCAR-5
  GI50: 22.4 µM
IGROV-1
  GI50: 17.4 µM
OVCAR-3
  GI50: 25.9 µM
UACC-62
  GI50: 16.7 µM
UACC-257
  GI50: 24.2 µM
SK-MEL-5
  GI50: 14.1 µM
SK-MEL-2
  GI50: 28 µM
SK-MEL-28
  GI50: 42.1 µM
[2]
  GI50: 61.1 µM
  TGI: 56.2 µM
[3]
  GI50: 27.8 µM
  TGI: 55.4 µM
[4]
  GI50: 22 µM
  TGI: 33.8 µM
[5]
  GI50: 34.1 µM
  TGI: 54.1 µM
[6]
  GI50: 24.1 µM
  TGI: 60.7 µM
[7]
  GI50: 29.6 µM
  TGI: 47.4 µM
[8]
  GI50: 48.3 µM
  TGI: 93.9 µM
SF-268 [9]
  Activity: <=32%
BT-549
  GI50: 47.5 µM
SNB-19
  GI50: 22.3 µM
SF-539
  GI50: 21.8 µM
SF-295
  GI50: 15.8 µM
SW-620
  GI50: 24 µM
SF-268 [10]
  GI50: > 100 µM
KM12
  GI50: 17.1 µM
HCT-15
  GI50: 15.9 µM
HCC 2998
  GI50: 17.9 µM
NCI-H522
  GI50: 15.9 µM
COLO 205
  GI50: 36.8 µM
[11]
  GI50: 12.8 µM
NCI-H460
  GI50: > 100 µM
HOP-92
  GI50: 35.9 µM
EKVX
  GI50: 25.7 µM
HOP-62
  GI50: 18.6 µM
CCRF-CEM
  GI50: 28 µM
MCF7 [12]
  Activity: <=32%
